Experimental data from article PMC6821791, “Phase I Trial of Pyragrel, a Novel Thromboxane Synthetase Inhibitor, to Evaluate the Safety, Tolerability, and Pharmacokinetics in Healthy Volunteers” (Frontiers in Pharmacology, 2019).
Several values for one entry are separate records, joined by “and”; a condition that tells them apart may be missing. Identical values can stand only once.

Key:
[1] = Preliminary pharmacodynamic studies of the metabolites; conditions: data not shown
Protocol: Based on the pharmacological activity, the pharmacokinetic characteristics of the metabolites were evaluated in the study.

[2] = mice, daily 36 mg/kg injections for 4 days, cited from earlier work
[3] = dog, in vivo; cited from earlier work
[4] = tested on: focal cerebral ischemia; conditions: cited from earlier work
[5] = tested on: platelet agglutination inducted by adenosine diphosphate (ADP) and arachidonic acid (AA); assay: Platelet agglutination inducted by ADP and AA (Part IV); assay type: in vivo, human; conditions: single 3 h infusion of pyragrel 60, 120 or 240 mg, data not shown
Protocol: (§1) Urinary levels of 11-D-HTXB2, the degree of platelet agglutination inhibition (DPAI), and the plasma levels of TXB2 and 6-keto-PG1α are considered effective indicators to confirm the antithrombotic effect of a drug candidate ([Uyama et al., 1985]; [Morio et al., 1993]). Therefore, we determined the inhibitory effect of pyragrel on all these three markers in Part IV after a single 3 h infusion dose of pyragrel (60, 120, or 240 mg). […] Similarly, the plasma levels of TXB2 and 6-keto-PG1α (stable metabolites of TXA2 and PGI2, respectively) were determined by ELISA since the decreased TXB2/6-keto- PG1α ratio indicates platelet aggregation and thrombosis inhibition ([Mizugaki et al., 1999]). […] Actually, levels of plasma TXB2 and 6-keto-PG1α are different between patients with cerebral ischemic and healthy subjects; with the limitation of small size for pharmacodynamic activity evaluation in the study, plus the significant reduction in urinary 11-D-HTXB2 level here, we recommended that a larger sample size, extensive phase II study should be performed in patients to further study the pharmacodynamic characteristic of pyragrel.

[6] = tested on: human umbilical vein endothelial cells (HUVEC); conditions: in vitro; cited from earlier work
[7] = tested on: plasma TXB2 and 6-keto-PG1α; assay: Plasma TXB2 and 6-keto-PG1α by ELISA (Part IV); assay type: in vivo, human; conditions: pyragrel 60, 120, 240 mg single i.v. dose; data not shown
Protocol: as §1

[8] = tested on: urinary 11-D-HTXB2 (indicator of TXA2 production); assay: Urinary 11-D-HTXB2 production by ELISA (Part IV); assay type: in vivo, human; conditions: for Urinary 11-D-HTXB2 (standardized by urine creatinine): Part IV
Protocol: […] […] Production of 11-dehydro-thrombxane B2 (11-D-HTXB2) in urine sample was detected by ELISA method.
(§2) The vital signs were analyzed by repeated measures analysis of variance (ANOVA), and laboratory indexes were analyzed by the paired t-test and one-way ANOVA. Comparison within different dose regimens of pyragrel or among different treatments (pyragrel, ozagrel, and placebo) or production of urinary 11-D-HTXB2 among groups was performed with the t-test, and expected values were considered along with the actual situation. Descriptive methods were used to compare the incidence of AE between pyragrel and ozagrel/placebo or in different pyragrel dose regimens; the normal/abnormal changes in laboratory examinations before and after administration were described.
Given that 11-dehydrothromboxane B2 (11-D-HTXB2) is considered a reliable indicator of TXA2 production in humans and several animal models ([Morio et al., 1993]; [Yamanaka et al., 1993]), we preliminarily measured the production of urinary 11-D-HTXB2 as a maker for evaluating the TXA2 inhibition activity of pyragrel in three dose groups (60, 120, or 240 mg) in Part IV. […] ( Table 9 ).

[9] = Safety assessment, adverse event monitoring (Parts I-V); assay type: in vivo, human
Protocol: Safety was assessed using subject interviews and adverse event (AE) monitoring. All subjects received laboratory examinations after termination of drug infusion for 48 or 72 h; the examination items are the same as those listed in the screening process. If clinical abnormalities were present, further follow-ups were required until the laboratory test values or vital sign levels of the abnormal items returned to normal values or stable levels. The clinical significance of abnormal laboratory test values was determined by the physicians.
as §2

[10] = Part II, pyragrel 240 mg in 250 ml saline
[11] = Part III, multiple doses of pyragrel 180 mg
[12] = Part IV, pyragrel 60, 120, 240 mg crossover
[13] = Part V, pyragrel 360 mg in 24 h

COc1cc(CCC(=O)O)ccc1OCc1nc(C)c(C)nc1C [BBS]
Antiplatelet and antithrombotic effects [1]: weak

COc1cc(C=CC(=O)[O-])ccc1OCc1nc(C)c(C)nc1C.[Na+] [Pyragrel, sodium pyragrel]
Bleeding time, lower than with ozagrel ([2]; P < 0.01): 35%
Prolongation of coagulation time, pyragrel vs ozagrel [2]: comparable
Maximum safe dose [3]: > 12.5 mg/kg/day
Effect against focal cerebral ischemic injury and focal cerebral ischemia-reperfusion ([4]; rat models of focal cerebral ischemia, ref Wang and Wu, 2014): markedly protective effects
Nerve function ([4]; rats with focal cerebral ischemia-reperfusion injury, continuous infusion of pyragrel for 7 days): significant improvements
Platelet agglutination inducted by ADP and AA [5]: slightly inhibited
Effect against inflammatory induced HUVEC injury [6]: significant protective effects
Plasma 6-keto-PG1α [7]: increase
Plasma TXB2 [7]: decreased
Duration of the inhibitory effect on 11-D-HTXB2 production ([8]; 120- and 240-mg group, P<0.05 vs preadministration): at least 12 h
Urinary 11-D-HTXB2 (standardized by urine creatinine) ([8]; 60 mg/kg group, 0–3 h after administration): 37.83 ± 4.85 pg/mL
Urinary 11-D-HTXB2 (standardized by urine creatinine) ([8]; 60 mg/kg group, 3–4 h after administration): 36.64 ± 4.15 pg/mL
Urinary 11-D-HTXB2 (standardized by urine creatinine) ([8]; 60 mg/kg group, 4–8 h after administration): 35.05 ± 4.51 pg/mL
Urinary 11-D-HTXB2 (standardized by urine creatinine) ([8]; 60 mg/kg group, 8–12 h after administration, 60 mg/kg): 34.77 pg/mL and 34.77 ± 4.16 pg/mL
Urinary 11-D-HTXB2 (standardized by urine creatinine) ([8]; 60 mg/kg group, 12–24 h after administration, 60 mg/kg): 35.17 pg/mL and 35.17 ± 4.63 pg/mL
Urinary 11-D-HTXB2 (standardized by urine creatinine) ([8]; 120 mg/kg group, 0–3 h after administration): 37.06 ± 5.00 pg/mL
Urinary 11-D-HTXB2 (standardized by urine creatinine) ([8]; 120 mg/kg group, 3–4 h after administration): 35.85 ± 4.40 pg/mL
Urinary 11-D-HTXB2 (standardized by urine creatinine) ([8]; 120 mg/kg group, 4–8 h after administration): 33.03 ± 5.00 pg/mL
Urinary 11-D-HTXB2 (standardized by urine creatinine) ([8]; 120 mg/kg group, 8–12 h after administration): 31.45 ± 4.88 pg/mL
Urinary 11-D-HTXB2 (standardized by urine creatinine) ([8]; 120 mg/kg group, 12–24 h after administration): 32.14 ± 5.17 pg/mL
Urinary 11-D-HTXB2 (standardized by urine creatinine) ([8]; 240 mg group, 0–3 h after administration): 36.40 ± 4.68 pg/mL
Urinary 11-D-HTXB2 (standardized by urine creatinine) ([8]; 240 mg group, 3–4 h after administration): 35.37 ± 4.60 pg/mL
Urinary 11-D-HTXB2 (standardized by urine creatinine) ([8]; 240 mg group, 4–8 h after administration): 33.10 ± 4.31 pg/mL
Urinary 11-D-HTXB2 (standardized by urine creatinine) ([8]; 240 mg group, 8–12 h after administration, 240 mg/kg): 30.72 pg/mL and 30.72 ± 4.38 pg/mL
Urinary 11-D-HTXB2 (standardized by urine creatinine) ([8]; 240 mg group, 12–24 h after administration, 240 mg/kg): 31.37 pg/mL and 31.37 ± 3.79 pg/mL
Production of urinary 11-D-HTXB2, effect in words ([8]; single infusion of pyragrel 60, 120 or 240 mg): time- and dose-dependently inhibited
AE incidence rate (IR) ([9]; Part I, 36 pyragrel-treated subjects, 8 subjects of ozagrel treatment): 33.3%
AE Type ([9]; Part I, pyragrel 30 mg): DB elevation, palpitation
Number of AEs ([9]; Part I, pyragrel 30 mg): 2
AE Type ([9]; Part I, pyragrel 60 mg): Leucocytes increase, positive urine protein
Number of AEs ([9]; Part I, pyragrel 60 mg): 2
AE Type ([9]; Part I, pyragrel 120 mg): DB elevation
Number of AEs ([9]; Part I, pyragrel 120 mg): 1
AE Type ([9]; Part I, pyragrel 180 mg): DB elevation (2), ventosity
Number of AEs ([9]; Part I, pyragrel 180 mg): 3
AE Type ([9]; Part I, pyragrel 240 mg): APTT extension
Number of AEs ([9]; Part I, pyragrel 240 mg): 2
AE Type ([9]; Part I, pyragrel 300 mg): Lower hemoglobin, total bile acid increase
Number of AEs ([9]; Part I, pyragrel 300 mg): 2
AE Type [9, 10]: DB/TB elevation
Number of AEs [9, 10]: 2
AE incidence rate (IR) ([9]; Part II, pyragrel 240 mg in 250 ml saline, 2/4): 50%
AE Type [9, 11]: DB/TB elevation, alanine aminotransferase elevated, abdominal pain, headache, low blood potassium, urine frequency, fecal OBT+.
Number of AEs [9, 11]: 12
AE Type [9, 12]: Dizziness, TB/DB elevation, transient left tinnitus, double upper arm papules, fatigue
Number of AEs [9, 12]: 8
AE incidence ([9]; Part V, continuous infusion, 1/4): 25.0%
AE Type [9, 13]: DB elevation
Number of AEs [9, 13]: 1
Severe AEs, in words ([9]; Parts I-V): No severe AEs occurred
Number of AEs ([9]; Total, Parts I-V): 35
Incidence of elevation in conjugated bilirubin (DB elevation) ([9]; all parts, 12/68 subjects of pyragrel, 2/8 subjects of ozagrel): 17.6%
Tolerability, in words ([9]; single i.v. infusion up to 300 mg, multiple dose 180 mg, prolonged infusion 360 mg within 24 h): well tolerated
